Results on 8 compounds are retold here after ChEMBL document CHEMBL5149977, “FLT3 Inhibitors in Acute Myeloid Leukemia: Challenges and Recent Developments in Overcoming Resistance” (J Med Chem, 2021).

The term IC50 denotes the concentration needed to halve the response being measured. As usually defined, the Kd is the constant that tells how readily two partners part at equilibrium. In general, GI50 refers to the concentration that inhibits growth by half.

Assay [1] addresses Receptor-type tyrosine-protein kinase FLT3 (Homo sapiens, UniProt P36888, ITD). The assay is described as follows: Inhibition of FLT3-ITD (unknown origin).
The test system of assay [2] is BaF3. The experiment in a line: cells. As to conditions: Mus musculus.
Description: Antiproliferative activity against mouse BaF3 cells expressing FLT3-D835Y
In assay [3] the test system is BaF3. The experiment in a line: cells. To be noted: Mus musculus. This is another data set of the same source.
Assay [4] deals with BaF3. The assay is described as follows: cells. To be noted: Mus musculus. The source holds these as a separate data set.
The subject of assay [5] is MOLM-14. The assay is described as follows: cells. As to conditions: Homo sapiens.
Description: Antiproliferative activity against human MOLM-14 cells
The test system of assay [6] is BaF3. The experiment in a line: cells. To be noted: Mus musculus. This is another data set of the same source.
In assay [7] the test system is BaF3. The assay is described as follows: cells. To be noted: Mus musculus. This is another data set of the same source.
In assay [8] the test system is BaF3. The experiment in a line: cells. To be noted: Mus musculus. The source holds these as a separate data set.
The test system of assay [9] is MV4-11. The experiment in a line: cells. To be noted: Homo sapiens.
The target in assay [10] is Tyrosine-protein kinase ABL1 (Homo sapiens, UniProt P00519). The assay is described as follows: Inhibition of ABL1 (unknown origin).
Assay [11] has as its target Tyrosine-protein kinase Fgr (Homo sapiens, UniProt P09769). The experiment in a line: Inhibition of FGR (unknown origin).
Assay [12] has as its target Platelet-derived growth factor receptor alpha (Homo sapiens, UniProt P16234). The assay is described as follows: Inhibition of PDGFR alpha (unknown origin).
Assay [13] addresses NT-3 growth factor receptor (Homo sapiens, UniProt Q16288). The assay is described as follows: Inhibition of TrkC (unknown origin).
Assay [14] concerns the target Cyclin-dependent kinase 4 (Homo sapiens, UniProt P11802). The experiment in a line: Inhibition of CDK4 (unknown origin).
In assay [15] the target is Cyclin-dependent kinase 6 (Homo sapiens, UniProt Q00534). The experiment in a line: Inhibition of CDK6 (unknown origin).
The target in assay [16] is Cyclin-dependent kinase 2 (Homo sapiens, UniProt P24941). The experiment in a line: Inhibition of CDK2 (unknown origin).
In assay [17] the test system is MV4-11. The experiment in a line: Cytotoxicity against human MV4-11 cells incubated for 72 hrs. To be noted: MV4-11, 72 h. It counts as functional, cell-based.
Assay [18] concerns MV4-11. The experiment in a line: Cytotoxicity against human MV4-11 cells […] incubated for 72 hrs. It counts as functional, cell-based. To be noted: MV4-11, 72 h.
The target of assay [19] is Receptor-type tyrosine-protein kinase FLT3 (Homo sapiens, UniProt P36888, D835Y). The experiment in a line: Binding affinity to FLT3-D835Y mutant (unknown origin) assessed as dissociation constant.
Assay [20] concerns the target Receptor-type tyrosine-protein kinase FLT3 (Homo sapiens, UniProt P36888, D835H). The experiment in a line: Binding affinity to FLT3-D835H mutant (unknown origin) assessed as dissociation constant.
Assay [21] concerns the target T1, Receptor-type tyrosine-protein kinase FLT3 (Homo sapiens, UniProt P36888).
T1 sequence (P36888 whole entry): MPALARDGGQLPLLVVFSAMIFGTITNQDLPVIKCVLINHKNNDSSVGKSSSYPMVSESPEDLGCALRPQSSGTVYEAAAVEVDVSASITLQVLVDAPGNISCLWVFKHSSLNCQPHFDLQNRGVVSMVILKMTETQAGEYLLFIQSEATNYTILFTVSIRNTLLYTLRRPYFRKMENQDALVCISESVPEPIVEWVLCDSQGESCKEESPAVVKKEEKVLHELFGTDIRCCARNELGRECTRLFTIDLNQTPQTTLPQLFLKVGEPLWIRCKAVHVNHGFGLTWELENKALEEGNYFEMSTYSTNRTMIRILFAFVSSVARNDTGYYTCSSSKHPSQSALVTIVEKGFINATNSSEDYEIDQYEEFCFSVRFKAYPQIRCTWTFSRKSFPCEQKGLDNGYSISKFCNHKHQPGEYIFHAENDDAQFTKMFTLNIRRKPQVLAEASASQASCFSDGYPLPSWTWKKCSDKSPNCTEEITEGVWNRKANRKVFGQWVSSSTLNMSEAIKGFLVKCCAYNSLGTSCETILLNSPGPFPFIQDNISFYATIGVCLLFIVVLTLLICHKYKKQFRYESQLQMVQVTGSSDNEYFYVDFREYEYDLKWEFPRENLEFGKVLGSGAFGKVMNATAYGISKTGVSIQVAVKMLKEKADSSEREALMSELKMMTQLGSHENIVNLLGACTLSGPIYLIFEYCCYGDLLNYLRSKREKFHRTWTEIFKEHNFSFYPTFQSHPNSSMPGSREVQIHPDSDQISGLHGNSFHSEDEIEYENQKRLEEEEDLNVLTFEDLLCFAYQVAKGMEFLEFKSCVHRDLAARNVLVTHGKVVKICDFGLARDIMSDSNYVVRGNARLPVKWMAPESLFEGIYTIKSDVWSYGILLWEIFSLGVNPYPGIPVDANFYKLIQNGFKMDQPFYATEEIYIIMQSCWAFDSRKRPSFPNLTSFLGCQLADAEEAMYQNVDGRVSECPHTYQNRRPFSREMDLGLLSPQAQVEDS
Description: Inhibition of FLT3 (unknown origin)

The nature of assay [22]: Antiproliferative activity against mouse 32D cells expressing FLT3-ITD assessed as cell growth inhibition. In kind it is functional, cell-based.
A short description of assay [23]: Antiproliferative activity against mouse 32D cells expressing FLT3-D835Y assessed as cell growth inhibition. In kind it is functional, cell-based.
A short description of assay [24]: Antiproliferative activity against mouse 32D cells expressing FLT3-D835H assessed as cell growth inhibition. In kind it is functional.
A short description of assay [25]: Antiproliferative activity against mouse 32D cells expressing FLT3-ITD-D835Y assessed as cell growth inhibition. In kind it is functional.
Assay [26] is described as follows: Antiproliferative activity against mouse 32D cells expressing FLT3-ITD-Y842C assessed as cell growth inhibition. In kind it is functional.
Assay [27] in a line: Antiproliferative activity against mouse 32D cells expressing FLT3-ITD-Y842H assessed as cell growth inhibition. In kind it is functional.
A short description of assay [28]: Antiproliferative activity against mouse 32D cells expressing FLT3-ITD-F691L assessed as cell growth inhibition. It counts as functional.
For assay [29], the target named is Leukocyte tyrosine kinase receptor (Homo sapiens) (UniProt P29376). The assay is described as follows: Inhibition of LTK (unknown origin).
The test system of assay [30] is BaF3. The experiment in a line: cells. To be noted: Mus musculus. This is another data set of the same source.
Assay [31] relates to BaF3. The experiment in a line: cells. To be noted: Mus musculus. The source holds these as a separate data set.
Assay [32] concerns MOLM-13. The assay is described as follows: Antiproliferative activity against human MOLM-13 cells incubated for 72 hrs by MTS assay. In kind it is functional. (In general: Tetrazolium assays rely on reduction of a dye to a coloured formazan, in cell work by metabolically active cells.)
The test system of assay [33] is MOLM-13. The experiment in a line: Antiproliferative activity against drug resistant human MOLM-13 cells incubated for 72 hrs by MTS assay. In kind it is functional.
The subject of assay [34] is BaF3. The experiment in a line: Cytotoxicity against mouse BaF3 cells expressing FLT3-ITD measured after 72 hrs by cell titre glo assay. It counts as functional, cell-based. To be noted: BaF3, 72 h.
Assay [35] concerns BaF3. The experiment in a line: Cytotoxicity against mouse BaF3 cells expressing FLT3-ITD-D835H measured after 72 hrs by cell titre glo assay. As to conditions: BaF3, 72 h. In kind it is functional, cell-based.
The test system of assay [36] is BaF3. The experiment in a line: Cytotoxicity against mouse BaF3 cells expressing FLT3-ITD-D835Y measured after 72 hrs by cell titre glo assay. In kind it is functional, cell-based. To be noted: BaF3, 72 h.
For assay [37], the system named is BaF3. The experiment in a line: Cytotoxicity against mouse BaF3 cells expressing FLT3-ITD-F691L measured after 72 hrs by cell titre glo assay. To be noted: BaF3, 72 h. In kind it is functional, cell-based.
The test system of assay [38] is MOLM-13. The assay is described as follows: Cytotoxicity against human MOLM-13 cells measured after 72 hrs by cell titre glo assay. To be noted: MOLM-13, 72 h. In kind it is functional, cell-based.
For assay [39], the system named is MOLM-13. The assay is described as follows: Cytotoxicity against human MOLM-13 cells expressing FLT3-D835Y measured after 72 hrs by cell titre glo assay. As to conditions: MOLM-13, 72 h. It counts as functional, cell-based.
For assay [40], the system named is MOLM-14. The assay is described as follows: cells. As to conditions: Homo sapiens. The source holds these as a separate data set.
Description: Antiproliferative activity against human MOLM-14 cells expressing F691L

Sequence of NT-3 growth factor receptor (Q16288 whole entry): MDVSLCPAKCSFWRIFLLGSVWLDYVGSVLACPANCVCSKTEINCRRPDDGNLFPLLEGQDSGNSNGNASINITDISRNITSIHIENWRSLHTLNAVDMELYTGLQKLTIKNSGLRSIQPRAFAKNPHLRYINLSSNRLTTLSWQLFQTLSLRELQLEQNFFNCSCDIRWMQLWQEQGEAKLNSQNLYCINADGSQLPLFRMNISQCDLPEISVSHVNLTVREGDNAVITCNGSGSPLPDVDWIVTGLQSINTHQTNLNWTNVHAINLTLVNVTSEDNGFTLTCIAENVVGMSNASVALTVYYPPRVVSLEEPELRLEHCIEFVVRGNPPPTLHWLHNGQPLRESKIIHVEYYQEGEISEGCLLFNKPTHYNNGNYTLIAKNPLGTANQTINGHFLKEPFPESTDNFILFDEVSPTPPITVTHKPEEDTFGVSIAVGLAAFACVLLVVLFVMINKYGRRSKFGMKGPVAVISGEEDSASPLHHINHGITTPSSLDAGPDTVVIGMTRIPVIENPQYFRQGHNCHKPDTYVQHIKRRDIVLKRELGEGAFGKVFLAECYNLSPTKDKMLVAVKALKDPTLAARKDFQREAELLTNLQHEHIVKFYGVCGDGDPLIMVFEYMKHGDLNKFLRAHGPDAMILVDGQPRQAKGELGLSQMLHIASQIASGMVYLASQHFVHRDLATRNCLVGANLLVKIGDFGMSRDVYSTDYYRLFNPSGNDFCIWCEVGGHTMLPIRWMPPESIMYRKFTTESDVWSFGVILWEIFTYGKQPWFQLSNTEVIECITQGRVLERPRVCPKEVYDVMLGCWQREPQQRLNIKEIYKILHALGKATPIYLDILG
Sequence of Cyclin-dependent kinase 4 (P11802 whole entry): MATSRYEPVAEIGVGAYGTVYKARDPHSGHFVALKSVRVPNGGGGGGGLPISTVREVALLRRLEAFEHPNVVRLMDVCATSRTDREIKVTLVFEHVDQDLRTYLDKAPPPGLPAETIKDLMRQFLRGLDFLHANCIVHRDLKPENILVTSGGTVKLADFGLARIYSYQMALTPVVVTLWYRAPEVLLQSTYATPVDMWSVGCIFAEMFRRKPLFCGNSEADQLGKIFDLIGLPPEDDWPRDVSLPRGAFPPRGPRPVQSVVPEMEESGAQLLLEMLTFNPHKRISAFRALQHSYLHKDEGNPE
Sequence of Tyrosine-protein kinase Fgr (P09769 whole entry): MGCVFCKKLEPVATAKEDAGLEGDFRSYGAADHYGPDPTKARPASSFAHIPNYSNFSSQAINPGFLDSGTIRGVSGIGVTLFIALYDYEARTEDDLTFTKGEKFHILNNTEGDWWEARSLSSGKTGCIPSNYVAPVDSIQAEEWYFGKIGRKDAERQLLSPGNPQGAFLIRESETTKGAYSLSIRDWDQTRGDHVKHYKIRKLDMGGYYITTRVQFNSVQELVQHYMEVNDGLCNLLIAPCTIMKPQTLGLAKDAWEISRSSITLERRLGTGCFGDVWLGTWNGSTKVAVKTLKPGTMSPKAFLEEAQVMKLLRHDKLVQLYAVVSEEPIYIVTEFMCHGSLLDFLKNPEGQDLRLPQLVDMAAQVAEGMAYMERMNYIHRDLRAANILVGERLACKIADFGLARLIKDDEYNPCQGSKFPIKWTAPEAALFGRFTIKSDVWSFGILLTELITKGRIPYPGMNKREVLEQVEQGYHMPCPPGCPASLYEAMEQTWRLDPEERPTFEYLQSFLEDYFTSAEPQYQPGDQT
Sequence of Cyclin-dependent kinase 6 (Q00534 whole entry): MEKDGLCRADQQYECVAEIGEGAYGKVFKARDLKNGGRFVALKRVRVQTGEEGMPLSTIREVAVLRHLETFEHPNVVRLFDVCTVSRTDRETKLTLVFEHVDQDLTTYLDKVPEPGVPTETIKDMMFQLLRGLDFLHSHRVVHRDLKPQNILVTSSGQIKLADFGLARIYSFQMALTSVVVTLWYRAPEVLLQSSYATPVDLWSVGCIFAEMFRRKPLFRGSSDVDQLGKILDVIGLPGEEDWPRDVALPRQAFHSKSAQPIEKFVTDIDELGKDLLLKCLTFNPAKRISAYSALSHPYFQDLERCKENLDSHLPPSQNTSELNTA
Sequence of Platelet-derived growth factor receptor alpha (P16234 whole entry): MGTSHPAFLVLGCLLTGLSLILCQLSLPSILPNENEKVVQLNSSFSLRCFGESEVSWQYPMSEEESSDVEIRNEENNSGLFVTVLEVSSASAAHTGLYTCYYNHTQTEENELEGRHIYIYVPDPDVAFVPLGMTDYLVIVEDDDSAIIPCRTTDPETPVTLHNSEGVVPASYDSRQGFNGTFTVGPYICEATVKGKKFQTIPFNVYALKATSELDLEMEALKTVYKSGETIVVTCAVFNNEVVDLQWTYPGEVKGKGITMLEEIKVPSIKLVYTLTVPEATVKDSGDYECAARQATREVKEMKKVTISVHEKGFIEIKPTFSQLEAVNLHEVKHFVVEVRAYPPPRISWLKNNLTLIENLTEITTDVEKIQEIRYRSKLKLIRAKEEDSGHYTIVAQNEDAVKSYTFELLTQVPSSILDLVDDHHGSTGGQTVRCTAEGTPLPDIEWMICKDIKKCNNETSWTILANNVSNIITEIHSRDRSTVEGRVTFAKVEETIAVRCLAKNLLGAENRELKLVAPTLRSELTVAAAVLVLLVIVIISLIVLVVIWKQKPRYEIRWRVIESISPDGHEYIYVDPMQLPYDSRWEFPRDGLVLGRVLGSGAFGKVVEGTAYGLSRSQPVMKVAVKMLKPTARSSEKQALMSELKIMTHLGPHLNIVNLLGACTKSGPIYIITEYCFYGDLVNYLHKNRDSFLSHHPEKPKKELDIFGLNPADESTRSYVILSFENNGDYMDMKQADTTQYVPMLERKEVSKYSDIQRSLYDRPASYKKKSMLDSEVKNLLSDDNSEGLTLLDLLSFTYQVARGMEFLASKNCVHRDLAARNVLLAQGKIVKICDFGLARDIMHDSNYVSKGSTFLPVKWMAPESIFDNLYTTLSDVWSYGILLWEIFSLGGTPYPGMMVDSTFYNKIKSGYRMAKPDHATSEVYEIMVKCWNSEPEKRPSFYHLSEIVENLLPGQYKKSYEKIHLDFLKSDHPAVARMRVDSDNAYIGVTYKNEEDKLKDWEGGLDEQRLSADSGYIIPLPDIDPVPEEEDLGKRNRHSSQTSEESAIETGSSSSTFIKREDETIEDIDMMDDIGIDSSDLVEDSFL
Sequence of Tyrosine-protein kinase ABL1 (P00519 whole entry): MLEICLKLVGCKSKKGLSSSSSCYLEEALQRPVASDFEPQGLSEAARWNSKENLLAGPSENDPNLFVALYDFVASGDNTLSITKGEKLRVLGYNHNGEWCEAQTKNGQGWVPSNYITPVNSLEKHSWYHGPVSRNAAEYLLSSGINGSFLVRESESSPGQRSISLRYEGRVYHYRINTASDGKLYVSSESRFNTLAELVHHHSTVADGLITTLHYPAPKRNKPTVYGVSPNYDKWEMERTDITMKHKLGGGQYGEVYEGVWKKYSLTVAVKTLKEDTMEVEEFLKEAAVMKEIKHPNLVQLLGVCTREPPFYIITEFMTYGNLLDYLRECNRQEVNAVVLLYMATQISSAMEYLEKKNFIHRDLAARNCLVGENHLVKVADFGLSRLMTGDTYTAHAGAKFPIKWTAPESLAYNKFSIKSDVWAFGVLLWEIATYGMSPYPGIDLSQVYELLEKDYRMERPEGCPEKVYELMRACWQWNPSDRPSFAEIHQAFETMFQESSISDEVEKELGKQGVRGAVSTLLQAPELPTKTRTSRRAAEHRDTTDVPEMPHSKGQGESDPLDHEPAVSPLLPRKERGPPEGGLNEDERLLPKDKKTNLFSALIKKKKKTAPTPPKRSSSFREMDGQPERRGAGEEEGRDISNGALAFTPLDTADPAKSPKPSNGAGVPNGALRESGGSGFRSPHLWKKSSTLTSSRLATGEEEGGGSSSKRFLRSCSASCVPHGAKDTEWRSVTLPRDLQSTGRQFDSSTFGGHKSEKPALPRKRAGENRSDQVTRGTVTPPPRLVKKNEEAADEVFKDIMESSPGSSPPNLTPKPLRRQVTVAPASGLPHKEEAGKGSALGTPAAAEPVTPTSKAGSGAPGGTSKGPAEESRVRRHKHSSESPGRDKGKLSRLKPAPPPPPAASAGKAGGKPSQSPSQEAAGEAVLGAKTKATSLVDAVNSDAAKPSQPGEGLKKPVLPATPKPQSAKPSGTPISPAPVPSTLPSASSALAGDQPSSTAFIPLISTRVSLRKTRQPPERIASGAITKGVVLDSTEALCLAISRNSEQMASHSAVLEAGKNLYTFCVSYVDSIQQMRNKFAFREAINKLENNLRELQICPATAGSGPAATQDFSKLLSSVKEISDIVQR

For the compound `COc1cc2c(Oc3ccc(NC(=O)Nc4cccc(C)c4)cc3F)ccnc2cc1OCCCN1CCOCC1`, the IC50 in assay [1] amounted to 7 nM; in assay [2], 0.19 nM; in assay [3], 0.22 nM; in assay [4], 1.1 nM; in assay [5], 0.13 nM; in assay [6], 0.17 nM. In addition, the IC50 stood at 2.5 nM in [7], 22 nM in assay [8] and 0.14 nM in assay [9].

As for `COc1cc2ncc(-c3cccc(NC4CCNC4)n3)n2cc1-c1cnn(C)c1` (centres undefined), the IC50 in [10] was 0.6 nM; in assay [11], less than 0.5 nM; in [12], 1.1 nM; in assay [13] it was 0.7 nM.

Take `C[C@H]1CC[C@@H](n2c3cnccc3c3cnc(Nc4ccc5c(n4)CCN(C(=O)CO)C5)nc32)CC1`: the Kd was 4 nM in assay [1], 1 nM in assay [19] and 1 nM in [20]. For the same compound, the IC50 in [14] was 3 nM; in [15], 8 nM; in [16], 375 nM; in assay [17] it was 18 nM; in [18], 9 nM; in assay [21], 1 nM.

Turning to `CCCNc1nc(Nc2ccc(C#N)cc2)ncc1C#CCCCNC(=O)[C@H](C)N(C)C(=O)/C=C/CN(C)C` [FF-10101], the IC50 in [22] is 1.9 nM; in [23], 0.32 nM. In addition, the GI50 is 1.1 nM in [24]; 0.81 nM in assay [25]; 3.5 nM in [26]; 5.3 nM in [27]; 10 nM in assay [28].

Turning to `CCc1nc(C(N)=O)c(Nc2ccc(N3CCC(N4CCN(C)CC4)CC3)c(OC)c2)nc1NC1CCOCC1` [GILTERITINIB], the figures for the IC50 in assay [29], in assay [30] and in assay [31] were 0.35 nM, 1.8 nM and 2.1 nM, respectively.

`Cc1nn(C)cc1-c1nc2c(N3CCN(Cc4ccc(Cl)cc4)CC3)c(Cl)cnc2[nH]1` [MOBINITINIB]: the GI50 in [32] is 100 nM; in [33], 180 nM.

As to `C1=N/C2=N/c3ccc(OCCN4CCCC4)c(c3)COC/C=C/COCc3cccc(c3)C(=C1)N2` [PACRITINIB], the IC50 in assay [34] worked out at 133 nM; in assay [35] it was 306 nM; in assay [36] it was 434 nM; in assay [37] it was 291 nM; in [38] it was 73 nM; in assay [39], 173 nM.

As to `FC(F)(F)c1ccc(CNc2ccc(Cc3c[nH]c4ncc(Cl)cc34)cn2)cn1` [PEXIDARTINIB], the IC50 in assay [2] worked out at 0.19 nM; in assay [3], 130 nM; in [4] it was 97 nM; in [5], 350 nM; in [40], 670 nM; in assay [6], 0.17 nM. The IC50 in assay [7] worked out at 2.5 nM; in [8], 4700 nM; in [9], 200 nM.
